Results published in PMC7822065, “Discovery of indole-3-butyric acid derivatives as potent histone deacetylase inhibitors” (Journal of Enzyme Inhibition and Medicinal Chemistry, 2021).

Legend:
[1] = system: A2780 cells; test: MTT antiproliferative assay, A2780; type: cell-based; conditions: Homo sapiens, A2780, read-out: A2780 IC50
Protocol: The stock solutions of tested compounds were diluted with culture medium. Briefly, the cells were seeded into each well of 96-well plate, which were incubated at 37 °C, 5% CO2 until confluency 90–95%. Then, the cells were treated with compound sample at various concentrations for 48 h. Afterward, […] working solution (5 mg/ml) was added to each well and incubated for another 4 h. After incubation, the […] formed from MTT was extracted by adding DMSO (200 µl). The optical density (OD) at 490 nm and 630 nm were measured by Universal Microplate Spectrophotometer. […] The IC50 values were calculated with Origin 7.5 software (Originlab Corporation, Northampton, MA), and standard deviations of the IC50 values were obtained through at least 3 independent experiments.
A series of tumour cell lines including the lung cancer A549, Calu-3, SPC-A-1, H322, H1299, breast cancer MDA-MB-231, MCF-7, MDA-MB-468, colon carcinoma LoVo, Colo205, ovarian cancer A2780, SKOV3, gastric cancer MKN45, pancreatic cancer PNAC-1, leukemic K562, and multiple myeloma OPM2 cells were cultured for the antiproliferative assay of active compound I13. In the present study, molecule I13 could inhibit the growth of both solid and haematologic tumour cell lines (Table 4). […]. The antiproliferative activity of molecule I13 was considered to be restricted by the poor enzyme inhibitory selectivity. Enhancement of selectivity could be a useful strategy to improve the anticancer activity of this group of HDACIs.

[2] = system: HepG2 xenograft; conditions: 100 mg/kg/d intragastric, 16 days, HepG2 xenograft, n = 7
[3] = system: HepG2 cells; test: Annexin V/PI cell apoptosis assay (flow cytometry); conditions: annexin V-FITC/PI
Protocol: After 10 min of incubation, 1 µl PI was added to each sample and mixed gently. After incubation at room temperature for another 20 min in the dark, cells were subjected to flow cytometer (CytoFLEX, Beckman Coulter, Brea, CA).

O=C(CCCCCCC(=O)Nc1ccccc1)NO [SAHA, Suberoylanilide hydroxamic acid, reference compound]
IC50 [1]: 27.3 µM | mean weight of tumours [2]: 0.322 g | flow cytometry quadrant Q1-LL ([3]; HepG2, 0.2 μM): 88.86% | flow cytometry quadrant Q1-LR ([3]; HepG2, 0.2 μM): 5.30% | flow cytometry quadrant Q1-UL ([3]; HepG2, 0.2 μM): 0.05% | flow cytometry quadrant Q1-UR ([3]; HepG2, 0.2 μM): 5.79% | flow cytometry quadrant Q1-LL ([3]; HepG2, 0.8 μM): 86.03% | flow cytometry quadrant Q1-LR ([3]; HepG2, 0.8 μM): 7.73% | flow cytometry quadrant Q1-UL ([3]; HepG2, 0.8 μM): 0.01% | flow cytometry quadrant Q1-UR ([3]; HepG2, 0.8 μM): 6.23%
